Reference: US10738028B2, “Spiro three-membered ring, spiro five-membered ring peptide deformylase inhibitor and use thereof in antibacteria and anti-tumor” (priority 2016, dated 2020)
Where two headings read alike, the source gives them in different places.

How the values were obtained:
Assay type in all cases: cell-based
[1] = tested on: methicillin-resistant Staphylococcus aureus (MRSA); test: MIC, two-fold agar dilution (CLSI), clinical isolates; settings: for Anti-bacterial activity (MIC), strain MRSA 15-1: clinical isolate MRSA 15-1; for Anti-bacterial activity (MIC), strain MRSA 15-2: clinical isolate MRSA 15-2; for Anti-bacterial activity (MIC), strain MRSA 15-3: clinical isolate MRSA 15-3; for Anti-bacterial activity (MIC), strain MRSA 15-4: clinical isolate MRSA 15-4
Summary of the method: (§1)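 Following the American Clinical and Laboratory Standards Institute procedure, agar two-fold dilution served to determine minimum inhibitory concentrations.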

[2] = tested on: Moraxella catarrhalis (BCA); test: as above
Summary of the method: as §1

[3] = tested on: methicillin-resistant Staphylococcus epidermidis (MRSE); test: as above; settings: for Anti-bacterial activity (MIC), strain MRSE 15-1: clinical isolate MRSE 15-1; for Anti-bacterial activity (MIC), strain MRSE 15-2: clinical isolate MRSE 15-2; for Anti-bacterial activity (MIC), strain MRSE 15-3: clinical isolate MRSE 15-3; for Anti-bacterial activity (MIC), strain MRSE 15-7: clinical isolate MRSE 15-7
Summary of the method: as §1

[4] = tested on: Enterococcus faecium (EFM); test: as above
Summary of the method: as §1

[5] = tested on: Streptococcus pneoumoniae (SPN); test: as above
Summary of the method: as §1

[6] = tested on: methicillin-sensitive Staphylococcus epidermidis (MSSE); test: as above; settings: for Anti-bacterial activity (MIC), strain MSSE 15-3: clinical isolate MSSE 15-3; for Anti-bacterial activity (MIC), strain MSSE 15-4: clinical isolate MSSE 15-4; for Anti-bacterial activity (MIC), strain MSSE 15-5: clinical isolate MSSE 15-5; for Anti-bacterial activity (MIC), strain MSSE 15-6: clinical isolate MSSE 15-6
Summary of the method: as §1

[7] = tested on: Escherichia coli (including ESBLs, non-ESBLs); test: as above; settings: for Anti-bacterial activity (MIC), strain ECO+ 15-1: clinical isolate ECO+ 15-1; for Anti-bacterial activity (MIC), strain ECO+ 15-2: clinical isolate ECO+ 15-2; for Anti-bacterial activity (MIC), strain ECO+ 15-3: clinical isolate ECO+ 15-3; for Anti-bacterial activity (MIC), strain ECO+ 15-4: clinical isolate ECO+ 15-4; for Anti-bacterial activity (MIC), strain ECO− 15-1: clinical isolate ECO− 15-1; for Anti-bacterial activity (MIC), strain ECO− 15-2: clinical isolate ECO− 15-2; for Anti-bacterial activity (MIC), strain ECO− 15-3: clinical isolate ECO− 15-3; for Anti-bacterial activity (MIC), strain ECO− 15-4: clinical isolate ECO− 15-4
Summary of the method: as §1

[8] = tested on: methicillin-sensitive Staphylococcus aureus (MSSA); test: as above; settings: for Anti-bacterial activity (MIC), strain MSSA 15-3: clinical isolate MSSA 15-3; for Anti-bacterial activity (MIC), strain MSSA 15-4: clinical isolate MSSA 15-4; for Anti-bacterial activity (MIC), strain MSSA 15-5: clinical isolate MSSA 15-5; for Anti-bacterial activity (MIC), strain MSSA 15-6: clinical isolate MSSA 15-6
Summary of the method: as §1

[9] = tested on: Enterococcus faecalis (EFA); test: as above
Summary of the method: as §1

[10] = tested on: A549 lung cancer cell line; test: CCK-8 proliferation inhibition; settings: Homo sapiens, A549, 72 h, concentration of 30 μM
Excerpt: (§2) 2. The present invention adopts the CCK-8 method to determine the proliferation inhibition effect of the spiro three-membered ring, spiro five-membered ring peptide deformylase inhibitor as described in Examples 1-80 against colorectal cancer cells, lung cancer cells, gastric cancer cells, liver cancer cells, and the like. […] The compound having the best activity synthesized in Example 64 was further tested for its inhibitory activity against other tumor cells including T cell leukemia, acute myeloid leukemia, cervical cancer, breast cancer, prostate cancer and osteosarcoma, and the like (see Table 7).
(§3) (1) HCT-116 colorectal cancer cell line, A549 lung cancer cell line, MGC-803 gastric cancer cell line, BEL-7402 liver cancer cell line, Jurkat T cell leukemia cell line, HL60 acute myeloid leukemia cell line, Hela cervical cancer cell line, MCF-7 breast cancer cell line, PC3 prostate cancer cell line and SAOS-2 osteosarcoma cell line were made into single cell suspension, 180 μL of which was inoculated into 96-well culture plate, which was cultured overnight in CO2 incubator (37° C., 5% CO2, 95% air).
(§4) (2) Each of the spiro three-membered ring, spiro five membered ring peptide deformylase inhibitors was dissolved in DMSO, and was further formulated into drug solution with required different final concentration using corresponding cell culture medium. The drug solutions were added to the above cells respectively (20 μL/well), with the control group added with 1‰ DMSO, and cultured in a CO2 incubator for 72 hours.
(§5) (3) After incubation for 72 hours, the culture solution was decanted, and 100 μL of 1:10 diluted CCK-8 solution was added.
(§6) Wherein, in step (1), the concentration of the single cell suspension was 2000 cells/well.
(§7) Wherein, in step (2), HCT-116 cells were cultured in McCoy's 5A medium (containing 10% newborn bovine serum, 1% double antibody); A549 and PC3 cells were cultured in F12 medium (containing 10% newborn bovine serum, 1% double antibody); MGC-803, BEL-7402, SAOS-2, Jurkat and HL60 cells were cultured in 1640 medium (containing 10% newborn bovine serum, 1% double antibody); and MCF-7 and Hela cells were cultured in DMEM high glucose medium (containing 10% newborn bovine serum, 1% double antibody).

[11] = tested on: MGC-803 gastric cancer cell line; test: CCK-8 proliferation inhibition; settings: concentration of 30 μM; for inhibition at 30 µM: Homo sapiens, MGC-803, 72 h
Excerpt: as §2, §3, §4, §5, §6, §7

[12] = tested on: BEL-7402 liver cancer cell line; test: CCK-8 proliferation inhibition; settings: concentration of 30 μM; for Inhibition of proliferation, Liver cancer BEL-7402: 72 hours, 30 µM
Excerpt: as §2, §3, §4, §5, §6, §7

[13] = tested on: HCT-116 colorectal cancer cell line; test: CCK-8 proliferation inhibition; settings: concentration of 30 μM, 72 hours, CCK-8; for inhibition at 30 µM: Homo sapiens, HCT-116, 72 h
Summary of the method: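 Cells were plated overnight at 2000 cells/well, then compound in culture medium was added at a range of final concentrations. After 72 hours in a CO2 incubator, medium was replaced with 1:10 CCK-8 solution for the read-out.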

O=CN(O)C[C@@H](CC1CCCC1)C(=O)N1CC2(CC2)C[C@H]1C(=O)Nc1nccs1 (stereo in doubt) [Example 40, (S)-5-((S)-3-cyclopentyl-2-((N-hydroxyformamido)methyl)propionyl)-N-(thiazol-2-yl)-5-spiro[2.4]heptane-6-carboxamide]
78%: HCT116 inhibition rate/% ([13]; 30 µM)
> 50%: inhibition at 30 µM [11]
0.5 µg/mL: Anti-bacterial activity (MIC), strain MRSA 15-1 [1] | Anti-bacterial activity (MIC), strain MRSA 15-2 [1] | Anti-bacterial activity (MIC), strain BCA 14-5 ([2]; clinical isolate BCA 14-5) | Anti-bacterial activity (MIC), strain BCA 14-6 ([2]; clinical isolate BCA 14-6) | Anti-bacterial activity (MIC), strain BCA 14-8 ([2]; clinical isolate BCA 14-8) | Anti-bacterial activity (MIC), strain MRSE 15-1 [3] | Anti-bacterial activity (MIC), strain MRSE 15-2 [3] | Anti-bacterial activity (MIC), strain MRSE 15-3 [3] | Anti-bacterial activity (MIC), strain MRSE 15-7 [3] | Anti-bacterial activity (MIC), strain MSSE 15-3 [6] | Anti-bacterial activity (MIC), strain MSSE 15-4 [6] | Anti-bacterial activity (MIC), strain MSSA 15-3 [8] | Anti-bacterial activity (MIC), strain MSSA 15-4 [8] | Anti-bacterial activity (MIC), strain MSSA 15-5 [8] | Anti-bacterial activity (MIC), strain MSSA 15-6 [8]
73%: Inhibition of proliferation, Liver cancer BEL-7402 [12]
63%: Inhibition of proliferation, Gastric cancer MGC-803 ([11]; 72 hours, 30 µM)
1 µg/mL: Anti-bacterial activity (MIC), strain BCA 14-1 ([2]; clinical isolate BCA 14-1) | Anti-bacterial activity (MIC), strain BCA 14-4 ([2]; clinical isolate BCA 14-4) | Anti-bacterial activity (MIC), strain EFM 15-1 ([4]; clinical isolate EFM 15-1) | Anti-bacterial activity (MIC), strain EFM 15-2 ([4]; clinical isolate EFM 15-2) | Anti-bacterial activity (MIC), strain EFM 15-4 ([4]; clinical isolate EFM 15-4) | Anti-bacterial activity (MIC), strain EFM 15-5 ([4]; clinical isolate EFM 15-5) | Anti-bacterial activity (MIC), strain EFM 15-6 ([4]; clinical isolate EFM 15-6)
30%: inhibition at 30 µM [10]
4 µg/mL: Anti-bacterial activity (MIC), strain SPN 16-4 ([5]; clinical isolate SPN 16-4) | Anti-bacterial activity (MIC), strain EFA 15-1 ([9]; clinical isolate EFA 15-1) | Anti-bacterial activity (MIC), strain EFA 15-2 ([9]; clinical isolate EFA 15-2) | Anti-bacterial activity (MIC), strain EFA 15-3 ([9]; clinical isolate EFA 15-3) | Anti-bacterial activity (MIC), strain EFA 15-4 ([9]; clinical isolate EFA 15-4) | Anti-bacterial activity (MIC), strain EFA 15-5 ([9]; clinical isolate EFA 15-5) | Anti-bacterial activity (MIC), strain EFA 15-6 ([9]; clinical isolate EFA 15-6) | Anti-bacterial activity (MIC), strain EFA 15-9 ([9]; clinical isolate EFA 15-9)
0.25 µg/mL: Anti-bacterial activity (MIC), strain MRSA 15-3 [1] | Anti-bacterial activity (MIC), strain MRSA 15-4 [1] | Anti-bacterial activity (MIC), strain BCA 14-7 ([2]; clinical isolate BCA 14-7) | Anti-bacterial activity (MIC), strain EFM 15-3 ([4]; clinical isolate EFM 15-3) | Anti-bacterial activity (MIC), strain SPN 16-2 ([5]; clinical isolate SPN 16-2) | Anti-bacterial activity (MIC), strain MSSE 15-5 [6] | Anti-bacterial activity (MIC), strain MSSE 15-6 [6]
32 µg/mL: Anti-bacterial activity (MIC), strain ECO+ 15-1 [7] | Anti-bacterial activity (MIC), strain ECO+ 15-2 [7] | Anti-bacterial activity (MIC), strain ECO+ 15-3 [7] | Anti-bacterial activity (MIC), strain ECO+ 15-4 [7] | Anti-bacterial activity (MIC), strain ECO− 15-1 [7] | Anti-bacterial activity (MIC), strain ECO− 15-2 [7] | Anti-bacterial activity (MIC), strain ECO− 15-3 [7] | Anti-bacterial activity (MIC), strain ECO− 15-4 [7]
0.2 µg/mL: Anti-bacterial activity (MIC), strain BCA 14-10 ([2]; clinical isolate BCA 14-10)

CCCC[C@H](CC(=O)NO)C(=O)N1CC2(CCCC2)C[C@H]1C(=O)Nc1cnccn1 [Example 77]
30%: inhibition at 30 µM ([13]; read-out: HCT116 inhibition rate/%)
32 µg/mL: Anti-bacterial activity (MIC) ([4]; strain EFM 15-1) | Anti-bacterial activity (MIC) ([4]; strain EFM 15-2) | Anti-bacterial activity (MIC) ([4]; strain EFM 15-3) | Anti-bacterial activity (MIC) ([9]; strain EFA 15-1) | Anti-bacterial activity (MIC) ([9]; strain EFA 15-2) | Anti-bacterial activity (MIC) ([9]; strain EFA 15-3) | Anti-bacterial activity (MIC) ([9]; strain EFA 15-4) | Anti-bacterial activity (MIC) ([9]; strain EFA 15-5) | Anti-bacterial activity (MIC) ([9]; strain EFA 15-6)
1 µg/mL: Anti-bacterial activity (MIC) ([2]; strain BCA 14-1)
≥ 30%: inhibition at 30 µM ([13]; Table 5, read-out: Inhibition of proliferation, Colorectal cancer HCT116)
0.25 µg/mL: Anti-bacterial activity (MIC), strain MRSA 15-1 [1] | Anti-bacterial activity (MIC), strain MRSA 15-3 [1] | Anti-bacterial activity (MIC) ([2]; strain BCA 14-10)
0.5 µg/mL: Anti-bacterial activity (MIC), strain MRSA 15-2 [1] | Anti-bacterial activity (MIC), strain MRSA 15-4 [1] | Anti-bacterial activity (MIC) ([2]; strain BCA 14-6) | Anti-bacterial activity (MIC) ([2]; strain BCA 14-7) | Anti-bacterial activity (MIC) ([2]; strain BCA 14-8) | Anti-bacterial activity (MIC), strain MRSE 15-1 [3] | Anti-bacterial activity (MIC), strain MSSE 15-3 [6] | Anti-bacterial activity (MIC), strain MSSA 15-3 [8]
> 50%: inhibition at 30 µM ([12]; Homo sapiens, Bel-7402, 72 h)
0.125 µg/mL: Anti-bacterial activity (MIC) ([2]; strain BCA 14-5) | Anti-bacterial activity (MIC), strain MSSE 15-6 [6] | Anti-bacterial activity (MIC), strain ECO+ 15-1 [7] | Anti-bacterial activity (MIC), strain MSSA 15-4 [8] | Anti-bacterial activity (MIC), strain MSSA 15-5 [8]
> 32 µg/mL: Anti-bacterial activity (MIC), strain ECO+ 15-2 [7] | Anti-bacterial activity (MIC), strain ECO+ 15-3 [7] | Anti-bacterial activity (MIC), strain ECO+ 15-4 [7] | Anti-bacterial activity (MIC), strain ECO− 15-1 [7] | Anti-bacterial activity (MIC), strain ECO− 15-2 [7] | Anti-bacterial activity (MIC), strain ECO− 15-3 [7] | Anti-bacterial activity (MIC), strain ECO− 15-4 [7] | Anti-bacterial activity (MIC), strain MSSA 15-6 [8]
2 µg/mL: Anti-bacterial activity (MIC) ([2]; strain BCA 14-4) | Anti-bacterial activity (MIC), strain MRSE 15-2 [3] | Anti-bacterial activity (MIC), strain MRSE 15-3 [3] | Anti-bacterial activity (MIC), strain MRSE 15-7 [3] | Anti-bacterial activity (MIC) ([4]; strain EFM 15-4) | Anti-bacterial activity (MIC) ([4]; strain EFM 15-5) | Anti-bacterial activity (MIC) ([4]; strain EFM 15-6) | Anti-bacterial activity (MIC), strain MSSE 15-4 [6] | Anti-bacterial activity (MIC), strain MSSE 15-5 [6]
16 µg/mL: Anti-bacterial activity (MIC) ([9]; strain EFA 15-9)
49%: Inhibition of proliferation, Liver cancer BEL-7402 [12]
19%: inhibition at 30 µM [11]
16%: inhibition at 30 µM [10]
